According to US4569943A, “Physiologically active substance P-23924, its production and use” (Takeda Chemical Industries, Ltd., priority 1982, dated 1986):
pIC50: −log10 of the molar value.

How the values were obtained:
Solubility = assay type: physicochemical
[1] = target: T1, Protocollagen prolyl hydroxylase (Gallus gallus, UniProt P16924); assay: Protocollagen prolyl hydroxylase inhibiting activity (method of R. E. Rhoads, substrate (Pro-Pro-Gly)5.4H2O); assay type: biochemical, chick embryo; conditions: 3.13 μM compound, 20 μg enzyme
T1 construct: partially purified enzyme preparation derived from chick embryo; from tissue; host or cells: chick embryo (partially purified enzyme preparation)
T1 sequence (P16924 1-516): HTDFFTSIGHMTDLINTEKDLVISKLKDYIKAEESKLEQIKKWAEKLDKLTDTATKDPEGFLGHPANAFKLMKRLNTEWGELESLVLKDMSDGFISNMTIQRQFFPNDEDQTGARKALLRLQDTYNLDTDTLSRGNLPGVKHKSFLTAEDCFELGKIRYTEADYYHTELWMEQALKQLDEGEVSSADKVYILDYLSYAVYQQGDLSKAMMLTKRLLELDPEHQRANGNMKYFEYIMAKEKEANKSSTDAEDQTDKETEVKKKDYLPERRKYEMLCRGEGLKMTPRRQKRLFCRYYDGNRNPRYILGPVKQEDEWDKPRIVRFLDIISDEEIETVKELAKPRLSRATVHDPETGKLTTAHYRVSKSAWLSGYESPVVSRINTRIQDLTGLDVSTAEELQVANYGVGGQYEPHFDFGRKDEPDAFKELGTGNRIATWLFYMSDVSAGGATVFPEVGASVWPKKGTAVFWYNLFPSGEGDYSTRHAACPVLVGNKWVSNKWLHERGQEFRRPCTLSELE
T1 sequence (P09102 23-515 partner): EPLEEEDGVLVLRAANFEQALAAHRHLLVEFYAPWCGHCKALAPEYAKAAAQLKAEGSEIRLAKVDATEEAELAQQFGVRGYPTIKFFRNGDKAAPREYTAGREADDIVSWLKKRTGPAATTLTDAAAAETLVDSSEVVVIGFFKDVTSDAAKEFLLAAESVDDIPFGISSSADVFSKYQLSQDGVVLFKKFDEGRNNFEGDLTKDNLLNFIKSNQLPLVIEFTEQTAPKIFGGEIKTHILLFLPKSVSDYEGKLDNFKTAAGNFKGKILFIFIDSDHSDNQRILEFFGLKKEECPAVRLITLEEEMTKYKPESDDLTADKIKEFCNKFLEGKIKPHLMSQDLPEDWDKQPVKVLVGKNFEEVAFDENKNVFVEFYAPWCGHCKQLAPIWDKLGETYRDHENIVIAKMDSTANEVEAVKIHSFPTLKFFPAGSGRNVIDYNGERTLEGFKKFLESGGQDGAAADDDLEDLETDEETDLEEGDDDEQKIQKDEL

[2] = target: T1, Protocollagen prolyl hydroxylase; assay: as above; assay type: biochemical, chick embryo; conditions: for inhibition at 12.5 µM: 12.5 μM compound, 100 μg enzyme; for pIC50: 100 μg (as protein) of partially purified enzyme preparation from chick embryo, read-out: Concentration of P-23924 required for a 50% inhibition
Description: (a) Protocollagen prolyl hydroxylase inhibiting activity: This inhibitory activity was assayed by the method of R. E. Rhoads [Methods in Enzymology XVII B, 306 (1971)] using a partially purified enzyme preparation derived from chick embryo in accordance with the methods of K. I. Kivirriko et al and J. Halme et al. [Journal of Biological Chemistry 242, 4007 (1967) and Biochimica et Biophysica Acta 198, 460 (1967)] and, as the substrate, (Pro-Pro-Gly)5.4H2 O [manufactured by Tanpakushitsu Kenkyu Shoreikai (Protein Research Foundation Society), Osaka, Japan]. The concentrations of P-23924 required for a 50% inhibition of 100 μg (as protein) of said partially purified enzyme preparation were as follows.
On the other hand, by a similar procedure as above, the protocollagen prolyl hydroxylase inhibiting activities on the compounds of P-23924 AR, BR, CR and DR are measured.

[3] = test system: collagen biosynthesis (uterus); assay: Collagen biosynthesis suppressant activity in uterus of estradiol-17β treated rats (method of T. Ishimaru et al); assay type: in vivo, SD rats; conditions: for Body weight of rats / Collagen content of uterus / Total protein content of uterus: groups of 10; for % Inhibition: Non-collagenous protein: total protein content - collagen
Text: (b) Collagen biosynthesis suppressant activity: In accordance with the method of T. Ishimaru et al [Biochemical Pharmacology 31, 915 (1982)], P-23924 was intraperitoneally administered to SD rats (females, 3 weeks old) once daily for 6 consecutive days and the collagen content and non-collagenous protein content of the uterus were compared with those of control animals. […] I | said tests, rats were used in groups of 10 individuals.

[4] = Description (acidity, fat solubility); assay type: physicochemical
[5] = Acute toxicity [LD50] by the intraperitoneal route; conditions: rat, in vivo, ip, rats
Text: The acute toxicity [LD50 ] values of P-23924 in rats by the intraperitoneal route are given below.

[6] = in dimethylsulfoxide, pyridine, ethyl acetate, chloroform, dioxan
[7] = in acetone, chloroform, n-hexane and petroleum ether
[8] = in dimethyl sulfoxide, dimethylformamide, pyridine and 5% aqueous sodium hydrogen carbonate
[9] = in methanol, dioxane and acetic acid
[10] = 1 mg/kg i.p. once daily 6 days + Estradiol-17β (5 μg), P < 0.05 (B: P < 0.02, C: P < 0.01)
[11] = 1 mg/kg i.p. once daily 6 days + Estradiol-17β (5 μg)
[12] = in chloroform, n-hexane and petroleum ether
[13] = 50 mg/kg i.p. once daily 6 days + Estradiol-17β (5 μg)

| Solubility (Solubility; [6]) | Solubility (Solubility; in n-hexane, petroleum ether) | inhibition at 3.13 µM [1] [%] | inhibition at 12.5 µM [2] [%] | Compound | Solubility (Solubility; in water) | Solubility (Solubility; [7]) | Solubility (Solubility; [8]) | Solubility (Solubility; [9]) | % Inhibition: Collagen [3, 10] [%] | Body weight of rats [3, 11] [g] | Collagen content of uterus [3, 11] [mg] | Total protein content of uterus [3, 11] [mg] | % Inhibition: Non-collagenous protein [3, 11] [%] | pIC50 [2] | Description [4] | LD50 [5] [mg/kg] | further results |
| --- | --- | --- | --- | --- | --- | --- | --- | --- | --- | --- | --- | --- | --- | --- | --- | --- | --- |
| readily or easily soluble | slightly soluble or insoluble | 37 | 26 | COc1cc2c(c(O)c1C)C(=O)C(C)=CC2=O [P-23924 AR] | slightly soluble or insoluble | – | – | – | – | – | – | – | – | – | – | – | – |
| readily or easily soluble | slightly soluble or insoluble | 26 | 22 | COC1=C(C)C(=O)c2c(cc(OC)c(C)c2O)C1=O [P-23924 BR] | slightly soluble or insoluble | – | – | – | – | – | – | – | – | – | – | – | – |
| readily or easily soluble | slightly soluble or insoluble | 40 | 33 | COC1=CC(=O)c2c(cc(OC)c(C)c2O)C1=O [P-23924 CR] | slightly soluble or insoluble | – | – | – | – | – | – | – | – | – | – | – | – |
| readily or easily soluble | slightly soluble or insoluble | 33 | 20 | COC1=C(C)C(=O)c2c(cc(O)c(C)c2O)C1=O [P-23924 DR] | slightly soluble or insoluble | – | – | – | – | – | – | – | – | – | – | – | – |
| – | – | – | – | COc1cc2c(c(O)c1CSCC(NC(C)=O)C(=O)O)C(=O)C(C)=CC2=O (stereo not shown) [P-23924A] | slightly soluble or insoluble | slightly soluble or insoluble | easily soluble | soluble | 33 | 73 ± 3 | 2.53 ± 0.35 | 15.67 ± 1.63 | 10 | 4.17 | acidic and fat-soluble | 100 to 200 | – |
| – | – | – | – | COC1=C(C)C(=O)c2c(cc(OC)c(CSCC(NC(C)=O)C(=O)O)c2O)C1=O (stereo not shown) [P-23924B] | slightly soluble or insoluble | slightly soluble or insoluble | easily soluble | soluble | 46 | 70 ± 5 | 2.37 ± 0.43 | – | 19 | 4.02 | acidic and fat-soluble | 50 to 100 | – |
| – | – | – | – | COC1=CC(=O)c2c(cc(OC)c(CSCC(NC(C)=O)C(=O)O)c2O)C1=O (stereo not shown) [P-23924C] | slightly soluble or insoluble | – | easily soluble | – | 61 | 73 ± 6 | 2.19 ± 0.49 | 14.01 ± 1.51 | 30 | 4.24 | acidic and fat-soluble | 100 to 200 | Solubility (Solubility; [12]): slightly soluble or insoluble; Solubility (Solubility; in methanol, dioxane, acetone and acetic acid): soluble |
| – | – | – | – | COC1=C(C)C(=O)c2c(cc(O)c(CSCC(NC(C)=O)C(=O)O)c2O)C1=O (stereo not shown) [P-23924D] | slightly soluble or insoluble | slightly soluble or insoluble | easily soluble | soluble | – | – | – | – | – | 3.57 | acidic and fat-soluble | > 400 | % Inhibition: Collagen ([3]; 50 mg/kg i.p. once daily 6 days + Estradiol-17β (5 μg), P < 0.05): 32%; Body weight of rats [3, 13]: 72 ± 3 g; Collagen content of uterus [3, 13]: 2.55 ± 0.30 mg; Total protein content of uterus [3, 13]: 15.63 ± 1.43 mg; % Inhibition: Non-collagenous protein [3, 13]: 11% |
| – | – | – | – | COc1cc2c(c(O)c1CSCC(NC(C)=O)C(=O)O)C(=O)C(CO)=CC2=O (stereo not shown) [P-23924E] | slightly soluble or insoluble | – | – | – | 34 | 72 ± 4 | 2.52 ± 0.36 | 15.73 ± 1.59 | 9 | 4.68 | acidic and fat-soluble | ~50 | Solubility (Solubility; [12]): slightly soluble or insoluble; Solubility (Solubility; in dimethyl sulfoxide, dimethylformamide, pyridine, 5% aqueous sodium hydrogen carbonate and methanol): easily soluble; Solubility (Solubility; in dioxane and acetic acid): soluble |
| – | – | – | – | COC1=C(CO)C(=O)c2c(cc(OC)c(CSCC(NC(C)=O)C(=O)O)c2O)C1=O (stereo not shown) [P-23924F] | slightly soluble or insoluble | slightly soluble or insoluble | easily soluble | soluble | 38 | 71 ± 3 | 2.47 ± 0.57 | 15.20 ± 1.53 | 15 | 4.68 | acidic and fat-soluble | 50 to 100 | – |
